From ChEMBL document CHEMBL1126979, “Studies toward structure-activity relationships of taxol: synthesis and cytotoxicity of taxol analogues with C-2 modified phenylisoserine side chains” (Bioorg Med Chem Lett, 1993) come the findings set out here.

For the experiment, the system named is HCT-116. The experiment is described as follows: Compound was evaluated by a cytotoxicity assay in HCT116 human colon carcinoma cell line. Format: functional, cell-based.

Consider `CC(=O)O[C@H]1C(=O)[C@@]2(C)C([C@H](OC(=O)c3ccccc3)[C@]3(O)C[C@H](OC(=O)[C@H](F)[C@@H](NC(=O)c4ccccc4)c4ccccc4)C(C)=C1C3(C)C)[C@]1(OC(C)=O)CO[C@@H]1C[C@@H]2O` (some centres undefined), for which 475 nM corresponded to half-maximal inhibition (IC50).

In turn, `CO[C@@H](C(=O)O[C@H]1C[C@@]2(O)[C@@H](OC(=O)c3ccccc3)C3[C@](C)(C(=O)[C@H](OC(C)=O)C(=C1C)C2(C)C)[C@@H](O)C[C@H]1OC[C@@]31OC(C)=O)[C@@H](NC(=O)c1ccccc1)c1ccccc1` (some centres undefined) came in with an IC50 of 866 nM.

`CC(=O)O[C@H]1C(=O)[C@@]2(C)C([C@H](OC(=O)c3ccccc3)[C@]3(O)C[C@H](OC(=O)C[C@@H](NC(=O)c4ccccc4)c4ccccc4)C(C)=C1C3(C)C)[C@]1(OC(C)=O)CO[C@@H]1C[C@@H]2O` (some centres undefined) came in with an IC50 of 297 nM.

Molecule `CC(=O)O[C@H]1C(=O)[C@@]2(C)[C@H]([C@H](OC(=O)c3ccccc3)[C@]3(O)C[C@H](OC(=O)[C@H](O)[C@@H](NC(=O)c4ccccc4)c4ccccc4)C(C)=C1C3(C)C)[C@]1(OC(C)=O)CO[C@@H]1C[C@@H]2O` [PACLITAXEL] had an IC50 of 4 nM.

As usually defined, the IC50 is the concentration at which inhibition is half-maximal.
